Data taken from patent US11147272B2, “Pyridone compounds and agricultural and horticultural fungicides comprising the same as active ingredients” (MITSUI CHEMICALS AGRO, INC., priority 2017, dated 2021).

How the values were obtained:
[1] = test system: Magnaporthe grisea; test: whole plant or invertebrate; format: in vivo; conditions: Blast on rice; control value class
[2] = test system: Alternaia brassicicola; test: Test Example C: Alternaria sooty spot on cabbage; format: in vivo; conditions: Alternaria sooty spot on cabbage; control value class
Excerpt: Seeds of a test plant (cabbage variety: Shikidori) were planted and cultivated until the cotyledons extended.
<Control Value> Control value=100{1−(n/3)}

[3] = test system: Puccinia recondita; test: Test Example E: Brown rust on wheat; format: in vivo; conditions: Brown rust on wheat; control value class
[4] = test system: Phytophthora infestans; test: whole plant or invertebrate; format: in vivo; conditions: Late blight on tomato; control value class
[5] = test system: Botrytis cinerea; test: Test Example B: Gray mold on tomato; conditions: Gray mold on tomato; control value class
[6] = test system: Plasmopara viticola; test: Test Example G: Downy mildew on vine; conditions: Downy mildew on vine; 250 ppm spray, 7 to 10 days after inoculation
[7] = test system: Colletotrichum orbiculare; test: Test Example H: Anthracnose on cucumber; conditions: Anthracnose on cucumber; 250 ppm spray, 6 to 10 days after inoculation
[8] = test system: Blumeria graminis f. sp. hordei; test: Test Example D: Powdery mildew on barley; conditions: Powdery mildew on barley; control value class

Structure (SMILES): CCc1ccc(=O)n(C)c1-c1ccc(OC)cc1Br [compound 354]
- Test A control value [1]: L (50% or less control value)
- Test C control value [2]: L (50% or less control value)
- Test E control value [3]: H (more than 50% control value)
- Test F control value [4]: L (50% or less control value)
- Test B control value [5]: L (50% or less control value)
- Test G control value [6]: L (50% or less control value)
- Test H control value [7]: H (more than 50% control value)
- Test D control value [8]: L (50% or less control value)

Structure (SMILES): CCc1cc(Cl)c(=O)n(CC)c1-c1ccc(OC)cc1C [compound 355]
- Test A control value [1]: H (more than 50% control value)
- Test C control value [2]: H (more than 50% control value)
- Test E control value [3]: H (more than 50% control value)
- Test F control value [4]: L (50% or less control value)
- Test B control value [5]: H (more than 50% control value)
- Test G control value [6]: L (50% or less control value)
- Test H control value [7]: H (more than 50% control value)
- Test D control value [8]: H (more than 50% control value)

Structure (SMILES): CCc1cc(Br)c(=O)n(CC)c1-c1ccc(OC)cc1C [compound 356]
- Test A control value [1]: H (more than 50% control value)
- Test C control value [2]: H (more than 50% control value)
- Test E control value [3]: H (more than 50% control value)
- Test F control value [4]: L (50% or less control value)
- Test B control value [5]: H (more than 50% control value)
- Test G control value [6]: L (50% or less control value)
- Test H control value [7]: H (more than 50% control value)
- Test D control value [8]: H (more than 50% control value)

Structure (SMILES): CCc1cc(Cl)c(=O)n(C)c1-c1ccc(OC)cc1Br [compound 357]
- Test A control value [1]: H (more than 50% control value)
- Test C control value [2]: L (50% or less control value)
- Test E control value [3]: H (more than 50% control value)
- Test F control value [4]: L (50% or less control value)
- Test B control value [5]: H (more than 50% control value)
- Test G control value [6]: L (50% or less control value)
- Test H control value [7]: H (more than 50% control value)
- Test D control value [8]: L (50% or less control value)

Structure (SMILES): CCc1cc(Br)c(=O)n(C)c1-c1ccc(OC)cc1Br [compound 358]
- Test A control value [1]: L (50% or less control value)
- Test C control value [2]: L (50% or less control value)
- Test E control value [3]: H (more than 50% control value)
- Test F control value [4]: L (50% or less control value)
- Test B control value [5]: H (more than 50% control value)
- Test G control value [6]: L (50% or less control value)
- Test H control value [7]: L (50% or less control value)
- Test D control value [8]: H (more than 50% control value)

Structure (SMILES): CCCC1=C(c2ccc(F)cc2Br)N(CC)C(=O)CC1 [compound 359]
- Test A control value [1]: L (50% or less control value)
- Test C control value [2]: L (50% or less control value)
- Test E control value [3]: L (50% or less control value)
- Test F control value [4]: L (50% or less control value)
- Test B control value [5]: L (50% or less control value)
- Test G control value [6]: L (50% or less control value)
- Test H control value [7]: L (50% or less control value)
- Test D control value [8]: H (more than 50% control value)

Structure (SMILES): CCc1ccc(=O)n(C)c1-c1ccc(F)cc1C [compound 360]
- Test A control value [1]: L (50% or less control value)
- Test C control value [2]: L (50% or less control value)
- Test E control value [3]: L (50% or less control value)
- Test F control value [4]: H (more than 50% control value)
- Test B control value [5]: L (50% or less control value)
- Test G control value [6]: L (50% or less control value)
- Test H control value [7]: L (50% or less control value)
- Test D control value [8]: L (50% or less control value)

Structure (SMILES): CCCc1ccc(=O)n(CC)c1-c1ccc(F)cc1Br [compound 361]
- Test A control value [1]: H (more than 50% control value)
- Test C control value [2]: L (50% or less control value)
- Test E control value [3]: H (more than 50% control value)
- Test F control value [4]: L (50% or less control value)
- Test B control value [5]: H (more than 50% control value)
- Test G control value [6]: L (50% or less control value)
- Test H control value [7]: L (50% or less control value)
- Test D control value [8]: H (more than 50% control value)

Structure (SMILES): CCc1cc(Cl)c(=O)n(C)c1-c1ccc(F)cc1C [compound 362]
- Test A control value [1]: H (more than 50% control value)
- Test C control value [2]: L (50% or less control value)
- Test E control value [3]: H (more than 50% control value)
- Test F control value [4]: L (50% or less control value)
- Test B control value [5]: H (more than 50% control value)
- Test G control value [6]: L (50% or less control value)
- Test H control value [7]: L (50% or less control value)
- Test D control value [8]: H (more than 50% control value)

Structure (SMILES): CCc1cc(Br)c(=O)n(C)c1-c1ccc(F)cc1C [compound 363]
- Test A control value [1]: H (more than 50% control value)
- Test C control value [2]: L (50% or less control value)
- Test E control value [3]: H (more than 50% control value)
- Test F control value [4]: L (50% or less control value)
- Test B control value [5]: H (more than 50% control value)
- Test G control value [6]: H (more than 50% control value)
- Test H control value [7]: L (50% or less control value)
- Test D control value [8]: L (50% or less control value)

Structure (SMILES): CCn1c(-c2c(F)cc(F)cc2F)c(C=O)cc(Br)c1=O [compound 364]
- Test A control value [1]: L (50% or less control value)
- Test C control value [2]: H (more than 50% control value)
- Test E control value [3]: H (more than 50% control value)
- Test F control value [4]: L (50% or less control value)
- Test B control value [5]: H (more than 50% control value)
- Test G control value [6]: H (more than 50% control value)
- Test H control value [7]: L (50% or less control value)
- Test D control value [8]: L (50% or less control value)

Structure (SMILES): CCn1c(-c2c(F)cc(F)cc2F)c(C(O)C(C)C)cc(Br)c1=O (stereo not drawn) [compound 365]
- Test A control value [1]: H (more than 50% control value)
- Test C control value [2]: H (more than 50% control value)
- Test E control value [3]: H (more than 50% control value)
- Test F control value [4]: L (50% or less control value)
- Test B control value [5]: H (more than 50% control value)
- Test G control value [6]: H (more than 50% control value)
- Test H control value [7]: H (more than 50% control value)
- Test D control value [8]: H (more than 50% control value)

Structure (SMILES): CCn1c(-c2c(F)cc(F)cc2F)c(C(=O)C(C)C)cc(Br)c1=O [compound 366]
- Test A control value [1]: H (more than 50% control value)
- Test C control value [2]: H (more than 50% control value)
- Test E control value [3]: H (more than 50% control value)
- Test F control value [4]: L (50% or less control value)
- Test B control value [5]: H (more than 50% control value)
- Test G control value [6]: H (more than 50% control value)
- Test H control value [7]: H (more than 50% control value)
- Test D control value [8]: H (more than 50% control value)

Structure (SMILES): CCc1ccc(=O)n(C)c1-c1ccc(OC)cc1C [compound 367]
- Test A control value [1]: L (50% or less control value)
- Test C control value [2]: L (50% or less control value)
- Test E control value [3]: L (50% or less control value)
- Test F control value [4]: L (50% or less control value)
- Test B control value [5]: L (50% or less control value)
- Test G control value [6]: L (50% or less control value)
- Test H control value [7]: H (more than 50% control value)
- Test D control value [8]: H (more than 50% control value)

Structure (SMILES): CCCc1cc(Cl)c(=O)n(CC)c1-c1ccc(F)cc1Br [compound 368]
- Test A control value [1]: H (more than 50% control value)
- Test C control value [2]: H (more than 50% control value)
- Test E control value [3]: H (more than 50% control value)
- Test F control value [4]: H (more than 50% control value)
- Test B control value [5]: H (more than 50% control value)
- Test G control value [6]: H (more than 50% control value)
- Test H control value [7]: H (more than 50% control value)
- Test D control value [8]: H (more than 50% control value)

Structure (SMILES): CCCc1cc(Br)c(=O)n(CC)c1-c1ccc(F)cc1Br [compound 369]
- Test A control value [1]: H (more than 50% control value)
- Test C control value [2]: H (more than 50% control value)
- Test E control value [3]: H (more than 50% control value)
- Test F control value [4]: H (more than 50% control value)
- Test B control value [5]: H (more than 50% control value)
- Test G control value [6]: H (more than 50% control value)
- Test H control value [7]: H (more than 50% control value)
- Test D control value [8]: H (more than 50% control value)

Structure (SMILES): CCCc1ccc(=O)n(CC)c1-c1ccc(OC)cc1Br [compound 370]
- Test A control value [1]: L (50% or less control value)
- Test C control value [2]: H (more than 50% control value)
- Test E control value [3]: H (more than 50% control value)
- Test F control value [4]: H (more than 50% control value)
- Test B control value [5]: H (more than 50% control value)
- Test G control value [6]: H (more than 50% control value)
- Test H control value [7]: H (more than 50% control value)
- Test D control value [8]: H (more than 50% control value)

Structure (SMILES): CCCC1=C(c2c(F)cc(F)cc2F)N(CC)C(=O)CC1 [compound 371]
- Test A control value [1]: L (50% or less control value)
- Test C control value [2]: L (50% or less control value)
- Test E control value [3]: L (50% or less control value)
- Test F control value [4]: L (50% or less control value)
- Test B control value [5]: H (more than 50% control value)
- Test G control value [6]: L (50% or less control value)
- Test H control value [7]: L (50% or less control value)
- Test D control value [8]: L (50% or less control value)
